# Data taken from article PMC7419507, “In vitro Cas9-assisted editing of modular polyketide synthase genes to produce desired natural product derivatives” (Nature Communications, 2020).
# Values joined by “and” are separate entries in the source; they are usually repeats but may differ in a detail not shown here. Equal values may be shown once.
# Assays:
# Assay type in all cases: cell-based
# FKBP12 and mTOR = molecular target: T1, FKBP12 and mTOR (Homo sapiens, UniProt P42345+P62942); test: Fluoppi analysis: induction of FKBP12-mTOR complex formation in transfected HeLa cells; settings: for Foci intensity: raw data, one replicate per line
# T1 construct: host or cells: HeLa cells
# In short: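 HeLa cells co-transfected with phAG-mTOR and pAsh-FKBP12, seeded 3000 cells/well, then compound-treated 1 h after 24 h at 37 °C. Fixed, Hoechst-stained, imaged by high-content microscopy; foci fluorescence normalized to total cell fluorescence, EC50 computed.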
# [1] = test system: malignant pleural mesothelioma MESO-1 cells; test: Cytotoxicity assay (CellTiter-Glo, 72 h), MESO-1; settings: raw replicate data
# In short: (§1)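 1000 cells/well; 4 h settle, then 2-fold serial dilutions (0.5% DMSO final), 72 h, 37 °C/5% CO2. Read-out: CellTiter-Glo luminescence. Media: RPMI1640 + 10% FBS (Jurkat, MESO-1; Jurkat also Glutamax), DMEM + 10% FBS (SKOV-3).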
# [2] = Cytotoxicity assay (CellTiter-Glo, 72 h), MESO-1; settings: human
# In short: as §1
# T1 sequence (P42345 2025-2114 limits assumed): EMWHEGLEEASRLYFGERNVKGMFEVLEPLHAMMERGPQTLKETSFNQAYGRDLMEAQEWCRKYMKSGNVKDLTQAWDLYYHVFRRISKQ
# T1 sequence (P62942 whole entry): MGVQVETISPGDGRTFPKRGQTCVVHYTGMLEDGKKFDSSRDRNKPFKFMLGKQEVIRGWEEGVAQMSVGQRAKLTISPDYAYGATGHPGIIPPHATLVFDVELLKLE
smiles,measurement,setting,value
"COC1CC2CCC(C)C(O)(O2)C(=O)C(=O)N2CCCCC2C(=O)OC(C(C)CC2CCC(O)C(OC)C2)CCC(C)C=C(C)C(O)C(OC)C(=O)C(C)CC(C)C=CC=CC=C1C (stereo not drawn) [Compound 16, 32-desketorapamycin]","PPI-inducing (binding enhancing) activity between FKBP12 and mTOR compared with rapamycin (1), in words",FKBP12 and mTOR; Fluoppi,relatively weaker activities
same,EC50,"FKBP12 and mTOR; Fluoppi, HeLa cells, 1 h treatment, three independent biological replicates, read-out: EC50, induction of the formation of FKBP-mTOR complex",38 nM
same,Foci intensity,FKBP12 and mTOR; conc 9.53674e-5 uM,0.01132 and 0.0225 and 0.02884
same,Foci intensity,FKBP12 and mTOR; conc 0.000190735 uM,0.02797 and 0.01973 and 0.01419
same,Foci intensity,FKBP12 and mTOR; conc 0.00038147 uM,0.04487 and 0.01438 and 0.009614
same,Foci intensity,FKBP12 and mTOR; conc 0.000762939 uM,0.009583 and 0.01833 and 0.008004
same,Foci intensity,FKBP12 and mTOR; conc 0.00152588 uM,0.008334 and 0.01713 and 0.01044
same,Foci intensity,FKBP12 and mTOR; conc 0.00305176 uM,0.03307 and 0.01421 and 0.0165
same,Foci intensity,FKBP12 and mTOR; conc 0.00610352 uM,0.02498 and 0.01872 and 0.01859
same,Foci intensity,FKBP12 and mTOR; conc 0.012207 uM,0.05798 and 0.0563 and 0.05141
same,Foci intensity,FKBP12 and mTOR; conc 0.0244141 uM,0.05792 and 0.05718 and 0.05874
same,Foci intensity,FKBP12 and mTOR; conc 0.0488281 uM,0.2264 and 0.3107 and 0.3692
same,Foci intensity,FKBP12 and mTOR; conc 0.0976562 uM,0.3743 and 0.3092 and 0.3931
same,Foci intensity,FKBP12 and mTOR; conc 0.195312 uM,0.3634 and 0.4076 and 0.3212
same,Foci intensity,FKBP12 and mTOR; conc 0.390625 uM,0.4389 and 0.407 and 0.4337
same,Foci intensity,FKBP12 and mTOR; conc 0.78125 uM,0.46 and 0.2978 and 0.3103
same,Foci intensity,FKBP12 and mTOR; conc 1.5625 uM,0.3578 and 0.3604 and 0.4124
same,Foci intensity,FKBP12 and mTOR; conc 3.125 uM,0.4619 and 0.4071 and 0.4306
same,Foci intensity,FKBP12 and mTOR; conc 6.25 uM,0.3337 and 0.3579 and 0.3756
same,Foci intensity,FKBP12 and mTOR; conc 12.5 uM,0.4107 and 0.3542 and 0.4482
same,Foci intensity,FKBP12 and mTOR; conc 25 uM,0.3853 and 0.4351 and 0.4313
same,Foci intensity,FKBP12 and mTOR; conc 50 uM,0.3983 and 0.3475 and 0.366
same,MESO1 viability (%),[1]; conc 9.53674e-5 uM,98.1% and 96.4%
same,MESO1 viability (%),[1]; conc 0.000190735 uM,91.1% and 98.0%
same,MESO1 viability (%),[1]; conc 0.00038147 uM,95.4% and 92.4%
same,MESO1 viability (%),[1]; conc 0.000762939 uM,78.9% and 75.5%
same,MESO1 viability (%),[1]; conc 0.00152588 uM,89.1% and 81.4%
same,MESO1 viability (%),[1]; conc 0.00305176 uM,75.1% and 66.9%
same,MESO1 viability (%),[1]; conc 0.00610352 uM,75.6% and 76.2%
same,MESO1 viability (%),[1]; conc 0.012207 uM,76.9% and 75.8%
same,MESO1 viability (%),[1]; conc 0.0244141 uM,81.3% and 75.2%
same,MESO1 viability (%),[1]; conc 0.0488281 uM,73.0% and 74.7%
same,MESO1 viability (%),[1]; conc 0.0976562 uM,75.8%
same,MESO1 viability (%),[1]; conc 0.195312 uM,76.9% and 68.9%
same,MESO1 viability (%),[1]; conc 0.390625 uM,78.5%
same,MESO1 viability (%),[1]; conc 0.78125 uM,69.3% and 68.9%
same,MESO1 viability (%),[1]; conc 1.5625 uM,73.6% and 69.8%
same,MESO1 viability (%),[1]; conc 3.125 uM,61.9% and 65.8%
same,MESO1 viability (%),[1]; conc 6.25 uM,68.9% and 66.9%
same,MESO1 viability (%),[1]; conc 12.5 uM,60.8% and 58.2%
same,MESO1 viability (%),[1]; conc 25 uM,49.9% and 47.7%
same,MESO1 viability (%),[1]; conc 50 uM,33.7% and 30.2%
same,viability at 72 h,"[2]; MESO-1 cells (malignant pleural mesothelioma), MESO-1 cells, 72 h, read-out: Plateau level of cell viability in the dose-response curve",~75%
same,"viability at 72 h, 9.53674e-05 uM","[2]; MESO-1 malignant pleural mesothelioma cells, conc 9.53674e-5 uM, raw replicate data, read-out: MESO1 viability (%)",102%
same,"viability at 72 h, 0.000190735 uM","[2]; MESO-1 malignant pleural mesothelioma cells, conc 0.000190735 uM, raw replicate data, read-out: MESO1 viability (%)",86.2%
same,"viability at 72 h, 0.00038147 uM","[2]; MESO-1 malignant pleural mesothelioma cells, conc 0.00038147 uM, raw replicate data, read-out: MESO1 viability (%)",94.8%
same,"viability at 72 h, 0.000762939 uM","[2]; MESO-1 malignant pleural mesothelioma cells, conc 0.000762939 uM, raw replicate data, read-out: MESO1 viability (%)",80.3%
same,"viability at 72 h, 0.00152588 uM","[2]; MESO-1 malignant pleural mesothelioma cells, conc 0.00152588 uM, raw replicate data, read-out: MESO1 viability (%)",82.2%
same,"viability at 72 h, 0.00305176 uM","[2]; MESO-1 malignant pleural mesothelioma cells, conc 0.00305176 uM, raw replicate data, read-out: MESO1 viability (%)",74.9%
same,"viability at 72 h, 0.00610352 uM","[2]; MESO-1 malignant pleural mesothelioma cells, conc 0.00610352 uM, raw replicate data, read-out: MESO1 viability (%)",80.5%
same,"viability at 72 h, 0.012207 uM","[2]; MESO-1 malignant pleural mesothelioma cells, conc 0.012207 uM, raw replicate data, read-out: MESO1 viability (%)",73.8%
